Experimental data as given in US7638515B2, “Tetrahydronaphthalene derivatives, process for their production and their use as anti-inflammatory agents” (Bayer Schering Pharma Aktiengesellschaft, priority 2003, dated 2009).
pIC50: −log10 of the molar value.

Columns and labels:
[1] = target: T1, glucocorticoid receptor (GR) (Homo sapiens, UniProt P04150); assay: Binding to the glucocorticoid receptor, recombinantly produced receptor, cytosol preparations of Sf9 cells; conditions: reference substance [3H]-dexamethasone
T1 construct: made in house; host or cells: Sf9 cells infected with recombinant baculovirus (cytosol preparation)
T1 sequence (P04150 1-777): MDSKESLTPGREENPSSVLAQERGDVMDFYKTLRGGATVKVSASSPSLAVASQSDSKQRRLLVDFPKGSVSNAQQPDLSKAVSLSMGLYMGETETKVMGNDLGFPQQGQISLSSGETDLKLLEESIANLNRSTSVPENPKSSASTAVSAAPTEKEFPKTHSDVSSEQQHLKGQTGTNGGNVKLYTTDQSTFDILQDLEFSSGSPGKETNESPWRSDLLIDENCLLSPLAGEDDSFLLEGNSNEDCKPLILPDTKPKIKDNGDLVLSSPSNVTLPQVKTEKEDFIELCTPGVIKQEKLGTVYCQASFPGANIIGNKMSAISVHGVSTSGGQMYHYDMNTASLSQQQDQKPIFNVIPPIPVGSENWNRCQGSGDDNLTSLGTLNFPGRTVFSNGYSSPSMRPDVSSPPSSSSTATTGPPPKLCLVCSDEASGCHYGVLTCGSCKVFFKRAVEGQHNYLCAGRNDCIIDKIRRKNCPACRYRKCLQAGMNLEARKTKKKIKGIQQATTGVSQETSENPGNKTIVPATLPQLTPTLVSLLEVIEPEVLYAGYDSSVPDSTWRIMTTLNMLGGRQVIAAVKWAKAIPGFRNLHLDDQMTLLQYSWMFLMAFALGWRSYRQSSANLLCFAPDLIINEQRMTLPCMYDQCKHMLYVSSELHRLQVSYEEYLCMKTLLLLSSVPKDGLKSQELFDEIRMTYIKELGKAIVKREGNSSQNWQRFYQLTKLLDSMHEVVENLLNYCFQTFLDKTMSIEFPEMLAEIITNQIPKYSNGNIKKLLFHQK
Text: (§1) The binding of the substances to the glucocorticoid receptor (GR) and other steroid-hormone receptors (mineral corticoid receptor (MR), progesterone receptor (PR) and androgen receptor (AR)) is examined with the aid of recombinantly produced receptors. Cytosol preparations of Sf9 cells, which had been infected with recombinant baculoviruses that code for the GR, are used for the binding studies. In comparison to the reference substance [^3H]-dexamethasone, the substances show a high affinity to the GR.

[2] = target: T2, progesterone receptor (PR) (Homo sapiens, UniProt P06401); assay: Binding to the progesterone receptor, recombinantly produced receptor
T2 construct: made in house
T2 sequence (P06401 1-933): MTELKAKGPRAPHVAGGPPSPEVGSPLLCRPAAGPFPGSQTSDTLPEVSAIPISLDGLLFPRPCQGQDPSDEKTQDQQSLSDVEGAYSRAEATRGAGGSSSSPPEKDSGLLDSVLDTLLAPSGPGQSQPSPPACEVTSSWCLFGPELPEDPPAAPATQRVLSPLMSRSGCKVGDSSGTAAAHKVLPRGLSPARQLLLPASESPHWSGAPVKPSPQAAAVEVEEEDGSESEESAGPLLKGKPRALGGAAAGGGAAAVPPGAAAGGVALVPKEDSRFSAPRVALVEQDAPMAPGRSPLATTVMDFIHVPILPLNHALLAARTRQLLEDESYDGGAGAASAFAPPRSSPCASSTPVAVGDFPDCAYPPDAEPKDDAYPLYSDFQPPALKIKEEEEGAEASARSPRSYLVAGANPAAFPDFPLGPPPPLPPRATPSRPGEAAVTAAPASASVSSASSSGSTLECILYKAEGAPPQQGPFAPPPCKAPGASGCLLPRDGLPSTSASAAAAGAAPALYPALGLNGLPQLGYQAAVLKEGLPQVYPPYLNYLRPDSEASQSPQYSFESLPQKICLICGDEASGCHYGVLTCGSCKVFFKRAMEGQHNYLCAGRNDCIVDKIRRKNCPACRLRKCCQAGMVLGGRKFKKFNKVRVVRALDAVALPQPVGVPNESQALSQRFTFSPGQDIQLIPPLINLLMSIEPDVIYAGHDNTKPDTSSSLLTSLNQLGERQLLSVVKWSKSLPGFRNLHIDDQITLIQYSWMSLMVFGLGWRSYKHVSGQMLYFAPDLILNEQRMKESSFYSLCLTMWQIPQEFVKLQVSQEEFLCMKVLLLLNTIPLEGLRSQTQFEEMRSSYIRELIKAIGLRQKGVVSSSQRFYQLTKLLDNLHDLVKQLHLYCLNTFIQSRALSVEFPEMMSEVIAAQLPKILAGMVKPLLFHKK
Text: as §1

[3] = system: secretion of cytokine IL-8 in the human monocyte cell line THP-1; assay: Inhibition of LPS-triggered secretion of cytokine IL-8 in THP-1 cells (ELISA); type: cell-based; conditions: THP-1, supernatant ELISA, read-out: IC50(IL8)
Protocol: The concentration of the cytokines was determined in the supernatant by means of commercially available ELISA kits.

Row | Compound | melting point | other results
1 | CC1(C)CC(O)(C(F)(F)F)C(Nc2cccc3[nH]ncc23)c2cc(F)cc(O)c21 (centres unmarked) [Example 49, 7-Fluoro-1-[(1H-indazol-4-yl)amino]-4,4-dimethyl-2-(trifluoromethyl)-1,2,3,4-tetrahydronaphthalene-2,5-diol] | – | pIC50 [1]: 7.02; pIC50 [2]: 6.34; pIC50 [3]: 7.72
2 | COc1cccc2c1CCC(O)(C(F)(F)F)C2Nc1ccc(F)c2nc(C)ncc12 (centres unmarked) [Example 145, 1-(8-Fluoro-2-methylquinazolin-5-ylamino)-5-methoxy-2-(trifluoromethyl)-1,2,3,4-tetrahydro-naphthalen-2-ol] | 132 °C | –
3 | COc1ccc2c(c1)C(Nc1cccc3c(=O)[nH]ccc13)C(O)(C(F)(F)F)CC2(C)C (centres unmarked) [Example 137, 5-(2-Hydroxy-7-methoxy-4,4-dimethyl-2-(trifluoromethyl)-1,2,3,4-tetrahydronaphthalen-1-ylamino)-2H-isoquinolin-1-one] | 112 °C | –
4 | COc1ccc2c(c1)C(Nc1ccc(F)c3nc(C)ncc13)C(O)(C(F)(F)F)CC2(C)C (centres unmarked) [Example 135, 1-(8-Fluoro-2-methylquinazolin-5-ylamino)-7-methoxy-4,4-dimethyl-2-(trifluoromethyl)-1,2,3,4-tetrahydronaphthalen-2-ol] | 97 °C | –
5 | CC1(C)CC(O)(C(F)(F)F)C(Nc2cccc3[nH]ncc23)c2c(F)ccc(F)c21 (racemic) [Example 105, Rac.-5,8-Difluoro-1-[(1H-indazol-4-yl)amino]-4,4-dimethyl-2-(trifluoromethyl)-1,2,3,4-tetrahydronaphthalen-2-ol] | 209 to 221 °C | –
6 | COc1cccc2c1CCC(O)(C(F)(F)F)C2Nc1cccc2[nH]c(=O)ccc12 (centres unmarked) [Example 144, 5-(2-Hydroxy-5-methoxy-2-(trifluoromethyl)-1,2,3,4-tetrahydronaphthalen-1-ylamino)-1H-quinolin-2-one] | 228 °C | –
7 | COc1ccc2c(c1)C(Nc1cccc3nc(C)ccc13)C(O)(C(F)(F)F)CC2(C)C (centres unmarked) [Example 139, 7-Methoxy-4,4-dimethyl-1-(2-methylquinolin-5-ylamino)-2-(trifluoromethyl)-1,2,3,4-tetrahydronaphthalen-2-ol] | 85 °C | –
8 | COc1ccc2c(c1)C(Nc1cccc3c(=O)[nH]ncc13)C(O)(C(F)(F)F)CC2(C)C (centres unmarked) [Example 138, 5-(2-Hydroxy-7-methoxy-4,4-dimethyl-2-(trifluoromethyl)-1,2,3,4-tetrahydronaphthalen-1-ylamino)-2H-phthalazin-1-one] | 197 °C | –

Further lines, with some results ahead:

Row | melting point | Compound | other results
9 | 116 °C | CC1(C)CC(O)(C(F)(F)F)C(Nc2cccc3c(=O)[nH]ncc23)c2cc(O)ccc21 (centres unmarked) [Example 141, 5-(2,7-Dihydroxy-4,4-dimethyl-2-(trifluoromethyl)-1,2,3,4-tetrahydronaphthalen-1-ylamino)-2H-phthalazin-1-one] | –
10 | 128 °C | COc1ccc2c(c1)C(Nc1cccc3[nH]c(=O)ccc13)C(O)(C(F)(F)F)CC2(C)C (centres unmarked) [Example 136, 5-(2-Hydroxy-7-methoxy-4,4-dimethyl-2-(trifluoromethyl)-1,2,3,4-tetrahydronaphthalen-1-ylamino)-1H-quinolin-2-one] | –
11 | 158 °C | CC1(C)CC(O)(C(F)(F)F)C(Nc2cccc3[nH]c(=O)ccc23)c2cc(O)c(Cl)cc21 (centres unmarked) [Example 134, 5-(6-Chloro-2,7-dihydroxy-4,4-dimethyl-2-(trifluoromethyl)-1,2,3,4-tetrahydronaphthalen-1-ylamino)-1H-quinolin-2-one] | –
12 | 127 °C | Cc1ccc2c(NC3c4cc(O)ccc4C(C)(C)CC3(O)C(F)(F)F)cccc2n1 (centres unmarked) [Example 140, 4,4-Dimethyl-1-(2-methylquinolin-5-ylamino)-2-(trifluoromethyl)-1,2,3,4-tetrahydronaphthalene-2,7-diol] | –
